Series [1] in a line: DPPH free radical scavenging (antioxidant activity, electron donating ability). The conditions noted are these: 0.1 mM DPPH in methanol, 30 minutes at room temperature in the absence of light, absorbance at 517 nm.
Description: Butylated hydroxyl anisole (BHA) was used as a control.
The mixture was allowed to react at room temperature for 30 minutes in the absence of light, and then the absorbance at 517 nm was measured using an UV-visible spectrophotometer (SCINCO, Korea). As blank, a reaction product between 0.5 ml of 0.1 mM DPPH and 1.5 ml of methanol was used. Electron donating ability (DEA) was calculated using the following equation: Electron donating ability (DEA) %={1−(S/B)}×100 wherein S is the absorbance at 517 nm of the reaction product between DPPH and the sample, and B is the absorbance at 517 nm of the reaction product between DPPH and methanol.
The nature of series [2]: Stability of ramalin in water by HPLC, alone or with vitamin C. It is filed as physicochemical. The conditions noted are these: for stability (preserved amount by HPLC area) over maintenance time: FIG. 5.
Description: At varying points of time, 10 μl of a sample was analyzed by semi-preparative reverse phase HPLC using an Agilent Eclipse XDB-C18 column (4.6×150 mm). The solvent system used consisted of 0.1% formic acid-containing water (A line) and 0.1% formic acid-containing methanol (B line). The analysis was carried out for a total of 30 minutes under the following conditions: from 0% to 5% for 15 min, from 5% to 90% for 5 min, from 90% to 0% for 5 min, and finally, from 0% to 5 min. The flow rate was 0.7 ml/min.

Converted amounts (≈) assume the structure as drawn. Where only a bound is given, the exact number is not on record here.

`COc1ccc(O)c(C(C)(C)C)c1` [Butylated hydroxyl anisole (BHA), Butylated hydroxyl anisole] registered an IC50 values in series [1] of 1.43 µg/mL (≈ 7.93 µM).
For `NC(CCC(=O)NNc1ccccc1O)C(=O)O` (stereo not drawn) [Synthesized ramalin, ramalin], the “stability (preserved amount by HPLC area) over maintenance time” value in series [2] (ramalin alone, stored in water at 25° C. and 38° C.) is “decomposed rapidly”; in series [2] (ramalin mixed with vitamin C (L-ascorbic acid) 1:1 (each 1000 ppm), stored in water), “stability of the ramalin was maintained”. Besides, the “stability at 38° C.” value in series [2] (ramalin stored alone in water) was “completely disappear”; in series [2] (ramalin stored together with vitamin C (1:1, each 1000 ppm) in water), “somewhat stable”. Moreover, the “time within which more than half of ramalin disappears” value in series [2] (room temperature, ramalin alone) is not above 4 days.

For the origin of these results see patent US8865934B2 (priority 2010, dated 2014).
